In patent US11318134B2, “Benzamide compounds” (priority 2018, dated 2022):

Legend:
[1] = system: RS4;11 cells; assay: RS4;11 cell proliferation assay (CellTiter-Glo); format: cell-based; conditions: Homo sapiens, RS4-11, 48 h, read-out: RS4;11 (nM), CTG IC50
[2] = target: Bcl-2 (Homo sapiens (Human), UniProt P10415); assay: Bcl-2 HTRF assay (FAM-Bak peptide); format: binding; conditions: HTRF, 4 nM Bcl-2, 100 nM FAM-Bak peptide; read-out: Bc1-2 IC50
[3] = system: NCI-H1963 cells; assay: NCI-H1963 cell proliferation assay (CellTiter-Glo); format: cell-based; conditions: Homo sapiens, NCI-H1963, 72 h, read-out: H1963 (nM), CTG IC50
Procedure: Cell proliferation was measured using the CellTiter-Glo® Luminescent Cell Viability Assay. The assay involved the addition of a single reagent (CellTiter-Glo® Reagent) directly to cells cultured in serum-supplemented medium.
Each compound evaluated was prepared as a DMSO stock solution (10 mM). Compounds were tested in duplicate on each plate, with a 10-point serial dilution curve (1:3 dilution). Compound treatment (1.0 μL) was added from the compound dilution plate to the cell plate. The highest compound concentration was 10 μM (final), with a 0.1% final DMSO concentration. Plates were then incubated at 37° C., 5% CO2. After 48 h of compound treatment for RS4;11 or 72 h for NCI-H1963, cell plates were equilibrated at rt for approximately 30 mins. An equi-volume amount of CellTiter-Glo® Reagent (40 μL) was added to each well. […] Luminescence was recorded using a Envision plate reader according to CellTiter-Glo protocol. IC50 of each compound was calculated using GraphPad Prism by nonlinear regression analysis.

[4] = target: Bcl-XL (Homo sapiens (Human), UniProt Q07817); assay: Bcl-XL HTRF assay (FAM-Bad peptide); format: binding; conditions: HTRF, 3 nM Bcl-XL, 40 nM FAM-Bad peptide; read-out: Bc1-XL IC50
Sequence of Bcl-XL (Q07817 whole entry): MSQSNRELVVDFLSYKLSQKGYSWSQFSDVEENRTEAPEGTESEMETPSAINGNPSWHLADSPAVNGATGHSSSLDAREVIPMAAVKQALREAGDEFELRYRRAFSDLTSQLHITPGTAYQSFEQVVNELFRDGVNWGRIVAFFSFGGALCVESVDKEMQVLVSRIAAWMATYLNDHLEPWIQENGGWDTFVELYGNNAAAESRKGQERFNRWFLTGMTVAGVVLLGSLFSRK

Sequence of Bcl-2 (P10415 whole entry): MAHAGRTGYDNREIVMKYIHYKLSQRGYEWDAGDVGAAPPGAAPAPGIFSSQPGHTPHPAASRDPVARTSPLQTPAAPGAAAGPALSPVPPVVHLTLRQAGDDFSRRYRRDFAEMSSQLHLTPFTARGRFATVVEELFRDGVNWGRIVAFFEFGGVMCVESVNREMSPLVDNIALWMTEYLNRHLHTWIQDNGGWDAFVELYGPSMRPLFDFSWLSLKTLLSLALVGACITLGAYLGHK

## CC1(C)CCC(CN2CCN(c3ccc(C(=O)NS(=O)(=O)c4ccc(N[C@H](CCN5CCC(O)CC5)CSc5ccccc5)c(S(=O)(=O)C(F)(F)F)c4)cc3)CC2)=C(C23CC(C(F)F)(C2)C3)C1 [Example 61, (R)-4-(4-((2-(3-(Difluoromethyl)bicyclo[1.1.1]pentan-1-yl)-4,4-dimethylcyclohex-1-en-1-yl)methyl)piperazin-1-yl)-N-((4-((4-(4-hydroxypiperidin-1-yl)-1-(phenylthio)butan-2-yl)amino)-3-((trifluoromethyl)sulfonyl)phenyl)sulfonyl)benzamide]
[1]
  IC50: < 100 nM
[2]
  IC50: ≤ 10 nM
[3]
  IC50: < 500 nM
[4]
  IC50: ≤ 10 nM

## CN(C)C1CCN(CC[C@H](CSc2ccccc2)Nc2ccc(S(=O)(=O)NC(=O)c3ccc(N4CCN(CC5=C(C67CC(C(F)F)(C6)C7)CC(C)(C)CC5)CC4)cc3)cc2S(=O)(=O)C(F)(F)F)CC1 [Example 62, (R)-4-(4-((2-(3-(Difluoromethyl)bicyclo[1.1.1]pentan-1-yl)-4,4-dimethylcyclohex-1-en-1-yl)methyl)piperazin-1-yl)-N-((4-((4-(4-(dimethylamino)piperidin-1-yl)-1-(phenylthio)butan-2-yl)amino)-3-((trifluoromethyl)sulfonyl)phenyl)sulfonyl)benzamide]
[1]
  IC50: 100 to 1000 nM
[2]
  IC50: ≤ 10 nM
[3]
  IC50: < 500 nM
[4]
  IC50: ≤ 10 nM

## CN(C)CC[C@H](CSc1ccccc1)Nc1ccc(S(=O)(=O)NC(=O)c2ccc(N3CCN(CC4=C(C56CC(C(F)F)(C5)C6)CC(C)(C)CC4)CC3)cc2)cc1S(=O)(=O)C(F)(F)F [Example 63, (R)-4-(4-((2-(3-(Difluoromethyl)bicyclo[1.1.1]pentan-1-yl)-4,4-dimethylcyclohex-1-en-1-yl)methyl)piperazin-1-yl)-N-((4-((4-(dimethylamino)-1-(phenylthio)butan-2-yl)amino)-3-((trifluoromethyl)sulfonyl)phenyl)sulfonyl)benzamide]
[1]
  IC50: < 100 nM
[2]
  IC50: ≤ 10 nM
[3]
  IC50: < 500 nM
[4]
  IC50: ≤ 10 nM

## CC1(C)CCC(CN2CCN(c3ccc(C(=O)NS(=O)(=O)c4ccc(N[C@H](CCN5CCNCC5)CSc5ccccc5)c(S(=O)(=O)C(F)(F)F)c4)cc3)CC2)=C(C23CC(C(F)F)(C2)C3)C1 [Example 64, (R)-4-(4-((2-(3-(difluoromethyl)bicyclo[1.1.1]pentan-1-yl)-4,4-dimethylcyclohex-1-en-1-yl)methyl)piperazin-1-yl)-N-((4-((1-(phenylthio)-4-(piperazin-1-yl)butan-2-yl)amino)-3-((trifluoromethyl)sulfonyl)phenyl)sulfonyl)benzamide]
[1]
  IC50: 100 to 1000 nM
[2]
  IC50: ≤ 10 nM
[3]
  IC50: > 1000 nM
[4]
  IC50: ≤ 10 nM

## CCN(CCO)CC[C@H](CSc1ccccc1)Nc1ccc(S(=O)(=O)NC(=O)c2ccc(N3CCN(CC4=C(C56CC(C(F)F)(C5)C6)CC(C)(C)CC4)CC3)cc2)cc1S(=O)(=O)C(F)(F)F [Example 70, (R)-4-(4-((2-(3-(difluoromethyl)bicyclo[1.1.1]pentan-1-yl)-4,4-dimethylcyclohex-1-en-1-yl)methyl)piperazin-1-yl)-N-((4-((4-(ethyl(2-hydroxyethyl)amino)-1-(phenylthio)butan-2-yl)amino)-3-((trifluoromethyl)sulfonyl)phenyl)sulfonyl)benzamide]
[1]
  IC50: 100 to 1000 nM
[2]
  IC50: ≤ 10 nM
[3]
  IC50: > 1000 nM
[4]
  IC50: ≤ 10 nM
